Counter-ions that a name gives are not always drawn.
Tests used:
[1] = In vitro drug release from 12% SELP-815K gels (RP-HPLC); format: physicochemical; conditions: day 30
Protocol: (§1) For dual drugs, drug loading was 12.5 mg/mL for each drug, for a total drug loading of 25 mg/mL. Samples were chilled on ice until tested. Samples incorporating powder drug in 12% w/w SELP-815K were prepared without dilution; however, the volume addition of the powdered drug was not considered in the calculation of the SELP concentration. Samples with powdered drug were tested at 25 and 50 mg/mL for single drug loaded samples and 25 mg/mL per drug for dual drug loaded samples.
The drug loaded SELP solutions were drawn into 0.5 cd insulin syringes and incubated overnight at 37° C. followed by cutting into gel disks as previously described. Weights were recorded. Individual gels were placed into 8 dram glass vials, to which 25 mL of release media consisting of 1×PBS, 1% SDS was added. The elution volume was chosen to ensure sink conditions and complete dissolution of both drugs, if all drug eluted immediately. […]
Drug content in the release media was detected by reverse phase high performance liquid chromatography (RP-HPLC; Agilent Technologies, Santa Clara, CA) using a RPC18 X-Terra column (4.6×250 mm, 5 µm particle size; Waters, Milford, MA) and a guard column of the same packing material. […] Percent cumulative release was calculated using the experimental drug loading per disk based on the pre-release weight.

[2] = system: Hep3B; test: WST-8 cell viability assay, single agent in vitro toxicity; format: cell-based; conditions: Homo sapiens, 72 hours of incubation, media containing 0.5% DMSO, read-out: IC50 Values of Each Drug per HCC Cell Line
Protocol: (§2) Growth inhibition by the base drugs used in this study was evaluated on three different hepatoma cell lines—two human HCC lines and one rat cell line—using a 2-(2-methoxy-4-nitrophenyl)-3-(4-nitrophenyl)-5-(2,4-disulfophenyl)-2H-tetrazolium monosodium salt (WST-8) cell viability assay (Dojindo Molecular Technologies, Inc., Rockville, MD). Human cell lines Hep3B and HepG2 were obtained from ATCC (Manassas, VA) and cultured in EMEM cell culture medium (ATCC) supplemented with 10% fetal bovine serum (FBS). The rat hepatoma line McA-RH7777 was generously donated by the Larson Lab (Northwestern University, IL). This line was cultured in DMEM cell culture medium (ATCC) supplemented with 10% FBS. All lines were grown at 37° C. in a humidified atmosphere of 5% CO2.
(§3) To prevent precipitation of the drugs, media containing 0.5% DMSO was used throughout all the studies. Doubling times of the cell lines were similar; therefore, cells were plated at the same density of 7,000 cells per well in 96-well plates for 24 hours. Media was removed, cells were washed with PBS, and treatment was applied. Drug concentrations were varied to include data points ranging from non-toxic to highly toxic. Following 72 hours of incubation, the media was removed and cell viability was quantified using the WST-8 assay with a SpectraMax M2 spectrophotometer (Molecular Devices, Sunnyvale, CA).
(§4) Each experiment was performed with N=6, assessing viability at 10 different drug concentrations. Relative cell viability was calculated by normalizing against the UV absorbance of untreated cells. GraphPad Prism was used to plot relative cell viability as a function of log drug concentration with a non-linear least-squares regression analysis and calculation of IC50 values.

[3] = system: rat hepatoma line McA-RH7777; test: as above; format: cell-based; conditions: 72 hours of incubation, media containing 0.5% DMSO, read-out: IC50 Values of Each Drug per HCC Cell Line
Protocol: as §2, §3, §4

[4] = system: human HCC HepG2 cells; test: as above; format: cell-based; conditions: 72 hours of incubation, media containing 0.5% DMSO, read-out: IC50 Values of Each Drug per HCC Cell Line
Protocol: as §2, §3, §4

[5] = In vitro drug release from 9% SELP-815K gels (RP-HPLC); format: physicochemical; conditions: for cumulative release of sorafenib: 9% SELP-815K, 14-day release
Protocol: (§5) SELP-815K formulations were prepared at 12% w/w in 1× phosphate buffered saline (PBS). Powder drugs were milled for 12 hours to reduce crystal size and variability using a custom built ball mill. Milled samples were inspected microscopically to verify homogeneity. Two methods of drug incorporation were investigated. […] Drug loading concentration was chosen based on manufacturer specified loading of doxorubicin in DEBs. The same loading was used for sorafenib.
as §1
The drug loaded SELP solutions were drawn into 0.5 cd insulin syringes and incubated overnight at 37° C. followed by cutting into gel disks as previously described. Weights were recorded. Individual gels were placed into 8 dram glass vials, to which 25 mL of release media consisting of 1×PBS, 1% SDS was added. The elution volume was chosen to ensure sink conditions and complete dissolution of both drugs, if all drug eluted immediately.
At predetermined time points of 1 hour, 3 hours, 6 hours, 12 hours, 1 day, 3 days, 5 days, 7 days, 10 days, 14 days, and 20 and 30 days for extended-release studies, a sample volume was removed for analysis and replaced with fresh media. Vials were sealed and maintained in a shaking incubator at 37° C., 120 rpm. The 9% SELP-815K gels underwent release testing for 14 days. The 12% SELP-815K gels were tested for 30 days.
Drug content in the release media was detected by reverse phase high performance liquid chromatography (RP-HPLC; Agilent Technologies, Santa Clara, CA) using a RPC18 X-Terra column (4.6×250 mm, 5 µm particle size; Waters, Milford, MA) and a guard column of the same packing material. The elution gradient at time zero began with mobile phase of 40% 20 mM ammonium acetate and 60% acetonitrile (CAN), which increased to 72% CAN over 9 minutes at a flow rate of 1 mL/min. Percent cumulative release was calculated using the experimental drug loading per disk based on the pre-release weight.

[6] = Rheological characterization of drug loaded 9% SELP-815K; format: physicochemical; conditions: SELP solution with dox HCl, as drug powder or DMSO solution, 25 mg/mL
Protocol: as §5, §1
An AR 550 stress-controlled rheometer from TA Instruments (New Castle, DE) was used for rheological testing. A cone-and-plate configuration equipped with a stainless steel 20 mm diameter, 4 degree geometry was used. An oscillation procedure with a temperature ramp from 18° C. to 37° C. […]

total drug content of doxorubicin released (cumulative release) ([1]; 25 mg/mL single drug loaded and dual drug loaded gels) [%] | cumulative release of doxorubicin ([1]; 50 mg/mL single drug loaded gel) [%] | loaded doxorubicin released in the first day ([5]; 9% SELP-815K gels, base form, in DMSO or powder, first day) | loaded doxorubicin released by day 14 ([5]; 9% SELP-815K gels, base form, day 14) | cumulative release of sorafenib ([5]; DMSO dissolved drug, dual drug loaded gels (12.5 mg/mL each drug)) [%] | cumulative release of sorafenib ([5]; DMSO dissolved drug, single drug loaded gel (25 mg/mL)) | cumulative release of sorafenib ([5]; powder drug, dual drug loaded gel (12.5 mg/mL each drug)) [%] | cumulative release of sorafenib ([5]; powder drug, single drug loaded gel (25 mg/mL)) [%] | viscosity relative to the SELP control with no drug [6] | Structure (SMILES) | IC50 [2] [nM] | IC50 [3] [nM] | IC50 [4] [nM]
30 | 15 | More than 50% | nearly all of the loaded drug released |  |  |  |  |  | COc1cccc2c1C(=O)c1c(O)c3c(c(O)c1C2=O)C[C@@](O)(C(=O)CO)C[C@@H]3O[C@H]1C[C@H](N)[C@H](O)[C@H](C)O1 [Doxorubicin] | 290 ± 40 | 480 ± 320 | 620 ± 410
 |  |  |  | 95 | less than 60% | 22 | 8.7 |  | CNC(=O)c1cc(Oc2ccc(NC(=O)Nc3ccc(Cl)c(C(F)(F)F)c3)cc2)ccn1 [Sorafenib] | 3470 ± 200 | 6880 ± 830 | 1720 ± 700
 |  |  |  |  |  |  |  | more than 2 fold | COc1cccc2c1C(=O)c1c(O)c3c(c(O)c1C2=O)C[C@@](O)(C(=O)CO)C[C@@H]3O[C@H]1C[C@H](N)[C@H](O)[C@H](C)O1 [dox HCl, doxorubicin hydrochloride] |  |  | 

From patent US12702674B2, “Methods for producing chemoembolic agents for the delivery of anti-cancer agents” (University of Utah Research Foundation, priority 2017, dated 2026)
